Measured values from ChEMBL document CHEMBL4219190, “Studies on synthesis of novel pyrido[2,3-d]pyrimidine derivatives, evaluation of their antimicrobial activity and molecular docking” (Bioorg Med Chem Lett, 2018).
Values after ≈ are worked out from the molar mass of the structure shown. Active and inactive are the calls of the source. The calls are words filed in the database; no cut-off is given here.

How the values were obtained:
Bacillus subtilis [1] = test: Bactericidal activity against Bacillus subtilis MTCC 121 incubated for 24 hrs followed by transfer of microbial suspension to Mueller Hinton agar plates and measured after 24 hrs post transfer; type: functional
Bacillus subtilis [2] = test: Antibacterial activity against Bacillus subtilis MTCC 121 after 24 hrs by well diffusion method; type: functional
Staphylococcus aureus [3] = test: Antibacterial activity against Staphylococcus aureus MTCC 96 after 24 hrs by well diffusion method; type: functional; settings: MTCC 96, 24 h
Staphylococcus aureus [4] = test: Antibacterial activity against Staphylococcus aureus MLS16 MTCC 2940 after 24 hrs by well diffusion method; type: functional
Micrococcus luteus [5] = test: Antibacterial activity against Micrococcus luteus MTCC 2470 after 24 hrs by well diffusion method; type: functional
Raoultella planticola [6] = test: Antibacterial activity against Klebsiella planticola MTCC 530 after 24 hrs by well diffusion method; type: functional
Escherichia coli [7] = test: Antibacterial activity against Escherichia coli MTCC 739 after 24 hrs by well diffusion method; type: functional
Pseudomonas aeruginosa [8] = test: Antibacterial activity against Pseudomonas aeruginosa MTCC 2453 after 24 hrs by well diffusion method; type: functional
Staphylococcus aureus [9] = test: Bactericidal activity against Staphylococcus aureus MTCC 96 incubated for 24 hrs followed by transfer of microbial suspension to Mueller Hinton agar plates and measured after 24 hrs post transfer; type: functional; settings: MTCC 96, 24 h
Staphylococcus aureus [10] = test: Bactericidal activity against Staphylococcus aureus MLS16 MTCC 2940 incubated for 24 hrs followed by transfer of microbial suspension to Mueller Hinton agar plates and measured after 24 hrs post transfer; type: functional
Micrococcus luteus [11] = test: Bactericidal activity against Micrococcus luteus MTCC 2470 incubated for 24 hrs followed by transfer of microbial suspension to Mueller Hinton agar plates and measured after 24 hrs post transfer; type: functional
Raoultella planticola [12] = test: Bactericidal activity against Klebsiella planticola MTCC 530 incubated for 24 hrs followed by transfer of microbial suspension to Mueller Hinton agar plates and measured after 24 hrs post transfer; type: functional
Escherichia coli [13] = test: Bactericidal activity against Escherichia coli MTCC 739 incubated for 24 hrs followed by transfer of microbial suspension to Mueller Hinton agar plates and measured after 24 hrs post transfer; type: functional
Pseudomonas aeruginosa [14] = test: Bactericidal activity against Pseudomonas aeruginosa MTCC 2453 incubated for 24 hrs followed by transfer of microbial suspension to Mueller Hinton agar plates and measured after 24 hrs post transfer; type: functional
Candida albicans [15] = test: Antifungal activity against Candida albicans MTCC 183 after 24 hrs by well diffusion method; type: functional; settings: MTCC 183, 24 h
Candida albicans [16] = test: Antifungal activity against Candida albicans MTCC 227 after 24 hrs by well diffusion method; type: functional
Candida albicans [17] = test: Antifungal activity against Candida albicans MTCC 854 after 24 hrs by well diffusion method; type: functional
Candida albicans [18] = test: Antifungal activity against Candida albicans MTCC 1637 after 24 hrs by well diffusion method; type: functional
Candida albicans [19] = test: Antifungal activity against Candida albicans MTCC 3018 after 24 hrs by well diffusion method; type: functional; settings: MTCC 3018, 24 h
Candida albicans [20] = test: Antifungal activity against Candida albicans MTCC 3017 after 24 hrs by well diffusion method; type: functional; settings: MTCC 3017, 24 h
Candida albicans [21] = test: Antifungal activity against Candida albicans MTCC 3958 after 24 hrs by well diffusion method; type: functional; settings: MTCC 3958, 24 h
Candida albicans [22] = test: Antifungal activity against Candida albicans MTCC 4748 after 24 hrs by well diffusion method; type: functional; settings: MTCC 4748, 24 h
Candida albicans [23] = test: Antifungal activity against Candida albicans MTCC 7315 after 24 hrs by well diffusion method; type: functional; settings: MTCC 7315, 24 h
Candida parapsilosis [24] = test: Antifungal activity against Candida parapsilosis MTCC 1744 after 24 hrs by well diffusion method; type: functional
[Candida] aaseri [25] = Antifungal activity against Candida aaseri MTCC 1962 after 24 hrs by well diffusion method; type: functional; settings: Yamadazyma aaseri, MTCC 1962, 24 h
Nakaseomyces glabratus [26] = test: Antifungal activity against Candida glabrata MTCC 3019 after 24 hrs by well diffusion method; type: functional; settings: MTCC 3019, 24 h
Pichia kudriavzevii [27] = test: Antifungal activity against Candida krusei MTCC 3020 after 24 hrs by well diffusion method; type: functional; settings: MTCC 3020, 24 h
Pichia sporocuriosa [28] = test: Antifungal activity against Issatchenkia hanoiensis MTCC 4755 after 24 hrs by well diffusion method; type: functional; settings: MTCC 4755, 24 h
Candida albicans [29] = test: Fungicidal activity against Candida albicans MTCC 183 incubated for 24 hrs followed by transfer of microbial suspension to Sabouraud dextrose agar plates and measured after 24 hrs post transfer; type: functional; settings: MTCC 183, 24 h
Candida albicans [30] = test: Fungicidal activity against Candida albicans MTCC 227 incubated for 24 hrs followed by transfer of microbial suspension to Sabouraud dextrose agar plates and measured after 24 hrs post transfer; type: functional
Candida albicans [31] = test: Fungicidal activity against Candida albicans MTCC 854 incubated for 24 hrs followed by transfer of microbial suspension to Sabouraud dextrose agar plates and measured after 24 hrs post transfer; type: functional
Candida albicans [32] = test: Fungicidal activity against Candida albicans MTCC 1637 incubated for 24 hrs followed by transfer of microbial suspension to Sabouraud dextrose agar plates and measured after 24 hrs post transfer; type: functional
Candida albicans [33] = test: Fungicidal activity against Candida albicans MTCC 3017 incubated for 24 hrs followed by transfer of microbial suspension to Sabouraud dextrose agar plates and measured after 24 hrs post transfer; type: functional; settings: MTCC 3017, 24 h
Candida albicans [34] = test: Fungicidal activity against Candida albicans MTCC 3018 incubated for 24 hrs followed by transfer of microbial suspension to Sabouraud dextrose agar plates and measured after 24 hrs post transfer; type: functional; settings: MTCC 3018, 24 h
Candida albicans [35] = test: Fungicidal activity against Candida albicans MTCC 3958 incubated for 24 hrs followed by transfer of microbial suspension to Sabouraud dextrose agar plates and measured after 24 hrs post transfer; type: functional; settings: MTCC 3958, 24 h
Candida albicans [36] = test: Fungicidal activity against Candida albicans MTCC 4748 incubated for 24 hrs followed by transfer of microbial suspension to Sabouraud dextrose agar plates and measured after 24 hrs post transfer; type: functional; settings: MTCC 4748, 24 h
Candida albicans [37] = test: Fungicidal activity against Candida albicans MTCC 7315 incubated for 24 hrs followed by transfer of microbial suspension to Sabouraud dextrose agar plates and measured after 24 hrs post transfer; type: functional; settings: MTCC 7315, 24 h
Candida parapsilosis [38] = test: Fungicidal activity against Candida parapsilosis MTCC 1744 incubated for 24 hrs followed by transfer of microbial suspension to Sabouraud dextrose agar plates and measured after 24 hrs post transfer; type: functional
[Candida] aaseri [39] = Fungicidal activity against Candida aaseri MTCC 1962 incubated for 24 hrs followed by transfer of microbial suspension to Sabouraud dextrose agar plates and measured after 24 hrs post transfer; type: functional; settings: Yamadazyma aaseri, MTCC 1962, 24 h
Nakaseomyces glabratus [40] = test: Fungicidal activity against Candida glabrata MTCC 3019 incubated for 24 hrs followed by transfer of microbial suspension to Sabouraud dextrose agar plates and measured after 24 hrs post transfer; type: functional; settings: MTCC 3019, 24 h
Pichia kudriavzevii [41] = test: Fungicidal activity against Candida krusei MTCC 3020 incubated for 24 hrs followed by transfer of microbial suspension to Sabouraud dextrose agar plates and measured after 24 hrs post transfer; type: functional; settings: MTCC 3020, 24 h
Pichia sporocuriosa [42] = test: Fungicidal activity against Issatchenkia hanoiensis MTCC 4755 incubated for 24 hrs followed by transfer of microbial suspension to Sabouraud dextrose agar plates and measured after 24 hrs post transfer; type: functional; settings: MTCC 4755, 24 h
Bacillus subtilis [43] = test: Antibiofilm activity against Bacillus subtilis MTCC 121 after 24 hrs by crystal violet staining-based assay; type: functional, organism-based
Staphylococcus aureus [44] = test: Antibiofilm activity against Staphylococcus aureus MTCC 96 after 24 hrs by crystal violet staining-based assay; type: functional, organism-based; settings: Staphylococcus aureus, MTCC 96, 24 h; read-out: IC50
Staphylococcus aureus [45] = test: Antibiofilm activity against Staphylococcus aureus MLS16 MTCC 2940 after 24 hrs by crystal violet staining-based assay; type: functional, organism-based
Pseudomonas aeruginosa [46] = test: Antibiofilm activity against Pseudomonas aeruginosa MTCC 2453 after 24 hrs by crystal violet staining-based assay; type: functional, organism-based
Raoultella planticola [47] = test: Antibiofilm activity against Klebsiella planticola MTCC 530 after 24 hrs by crystal violet staining-based assay; type: functional, organism-based

Question: For `O=C(NCCO)c1nc(-c2ccccc2)c2c(C(F)(F)F)cc(-c3ccccc3)nc2n1`, which MBC (Bacillus subtilis [1]) is on record?
Answer: inactive

Question: And the MIC (Bacillus subtilis [2])?
Answer: inactive

Question: And the MIC (Staphylococcus aureus [3])?
Answer: 31.2 µg/mL (≈ 71.2 µM)

Question: And the MIC (Staphylococcus aureus [4])?
Answer: inactive

Question: And the MIC (Micrococcus luteus [5])?
Answer: inactive

Question: What about the MIC (Raoultella planticola [6]) of the same compound?
Answer: inactive

Question: And the MIC (Escherichia coli [7])?
Answer: inactive

Question: What about the MIC (Pseudomonas aeruginosa [8]) of the same compound?
Answer: inactive

Question: And the MBC (Staphylococcus aureus [9])?
Answer: 62.4 µg/mL (≈ 142 µM)

Question: And the MBC (Staphylococcus aureus [10])?
Answer: inactive

Question: And the MBC (Micrococcus luteus [11])?
Answer: inactive

Question: And the MBC (Raoultella planticola [12])?
Answer: inactive

Question: What about the MBC (Escherichia coli [13]) of the same compound?
Answer: inactive

Question: And the MBC (Pseudomonas aeruginosa [14])?
Answer: inactive

Question: What about the MIC (Candida albicans [15]) of the same compound?
Answer: 31.2 µg/mL (≈ 71.2 µM)

Question: And the MIC (Candida albicans [16])?
Answer: inactive

Question: What about the MIC (Candida albicans [17]) of the same compound?
Answer: inactive

Question: What about the MIC (Candida albicans [18]) of the same compound?
Answer: inactive

Question: What about the MIC (Candida albicans [19]) of the same compound?
Answer: 15.6 µg/mL (≈ 35.6 µM)

Question: What about the MIC (Candida albicans [20]) of the same compound?
Answer: 31.2 µg/mL (≈ 71.2 µM)

Question: And the MIC (Candida albicans [21])?
Answer: 31.2 µg/mL (≈ 71.2 µM)

Question: What about the MIC (Candida albicans [22]) of the same compound?
Answer: 62.5 µg/mL (≈ 143 µM)

Question: And the MIC (Candida albicans [23])?
Answer: 31.2 µg/mL (≈ 71.2 µM)

Question: And the MIC (Candida parapsilosis [24])?
Answer: inactive

Question: And the MIC ([Candida] aaseri [25])?
Answer: 31.2 µg/mL (≈ 71.2 µM)

Question: And the MIC (Nakaseomyces glabratus [26])?
Answer: 15.6 µg/mL (≈ 35.6 µM)

Question: And the MIC (Pichia kudriavzevii [27])?
Answer: 31.2 µg/mL (≈ 71.2 µM)

Question: And the MIC (Pichia sporocuriosa [28])?
Answer: 15.6 µg/mL (≈ 35.6 µM)

Question: And the MFC (Candida albicans [29])?
Answer: 62.5 µg/mL (≈ 143 µM)

Question: And the MFC (Candida albicans [30])?
Answer: inactive

Question: And the MFC (Candida albicans [31])?
Answer: inactive

Question: And the MFC (Candida albicans [32])?
Answer: inactive

Question: And the MFC (Candida albicans [33])?
Answer: 62.5 µg/mL (≈ 143 µM)

Question: And the MFC (Candida albicans [34])?
Answer: 31.2 µg/mL (≈ 71.2 µM)

Question: What about the MFC (Candida albicans [35]) of the same compound?
Answer: 62.5 µg/mL (≈ 143 µM)

Question: And the MFC (Candida albicans [36])?
Answer: 62.5 µg/mL (≈ 143 µM)

Question: And the MFC (Candida albicans [37])?
Answer: 62.5 µg/mL (≈ 143 µM)

Question: What about the MFC (Candida parapsilosis [38]) of the same compound?
Answer: inactive

Question: And the MFC ([Candida] aaseri [39])?
Answer: 31.2 µg/mL (≈ 71.2 µM)

Question: And the MFC (Nakaseomyces glabratus [40])?
Answer: 31.2 µg/mL (≈ 71.2 µM)

Question: And the MFC (Pichia kudriavzevii [41])?
Answer: 62.5 µg/mL (≈ 143 µM)

Question: What about the MFC (Pichia sporocuriosa [42]) of the same compound?
Answer: 15.6 µg/mL (≈ 35.6 µM)

Question: What about the IC50 (Bacillus subtilis [43]) of the same compound?
Answer: Not Active

Question: And the IC50 (Staphylococcus aureus [44])?
Answer: 21.6 µg/mL (≈ 49.3 µM)

Question: And the IC50 (Staphylococcus aureus [45])?
Answer: Not Active

Question: And the IC50 (Pseudomonas aeruginosa [46])?
Answer: Not Active

Question: What about the IC50 (Raoultella planticola [47]) of the same compound?
Answer: Not Active
